In publication PMC12957798, “Adaptation of plateau frog peptide: From antimicrobial to angiogenic and proliferative functions” (Journal of Advanced Research, 2025):

What was measured:
HSF cells = assay: In vitro wound healing (migration) assay, HSF; type: cell-based, Human; conditions: SC17-2 concentrations exceeding 10 μg/mL, 16 h
HUVEC cells = assay: In vitro wound healing (migration) assay, HUVEC; type: cell-based, Human; conditions: SC17-2 concentrations exceeding 10 μg/mL, 16 h
HaCaT cells = assay: In vitro UVB damage repair (CCK-8); type: cell-based, Human
Experimental: HaCaT cells were inoculated in 24-well plates at 1 × 10^4 cells/well and incubated for 24 h to ensure uniformity and number of cells per well. Prior to UVB irradiation, cells were washed with phosphate buffer solution (PBS) and covered with 300 μL of PBS. The blank control group was wrapped through tinfoil to eliminate the effects caused by UVB irradiation and subsequently irradiated through […]. Immediately after irradiation, PBS was replaced with DMEM/F12 medium and 20 and 5 μg/mL of peptides SC17-2 were added, respectively, and incubated for 24 h. After that, 10 μL of CCK-8 was added to each well, and incubated for 2 h. The absorbance values of each well were measured at 450 nm.

BALB/c mice = assay: Mouse full-thickness skin wound healing; type: in vivo; conditions: for wound area: 20 μL daily on wound, relative to day 1, mean ± SEM, n = 7
Experimental: Mice were anaesthetised with sodium pentobarbital 2 % by intraperitoneal injection (0.1 mL/20 g mouse body weight), and after anaesthesia, hair was removed from the back using depilatory cream and power scissors, and circular full-thickness skin wounds of the same diameter were marked and created on the back of each mouse using circular stamps and red sealant. The mouse wounds were then covered and infiltrated daily with 20 μL of different concentrations of SC17-2 or 20 ng/mL VEGF, and an equal volume of saline was used in the control group. The mice were anaesthetised by isoflurane nebulisation (concentration 2 %) every two days and then placed under an optical camera to photograph the effect of the wound area.
Sodium pentobarbital (2 %) was utilised for the anaesthetisation of mice by intraperitoneal injection (0.1 mL/20 g of mouse body weight). Subsequent to the induction of anaesthesia, the dorsal hair was removed using depilatory creams and electric scissors. Thereafter, circular full skin wounds of the same diameter were marked and created on the back of each mouse using circular stamps and red stencils. Mouse wounds were then covered and infiltrated daily with 20 μL of different concentrations of SC17-2 or 20 ng/mL of VEGF, and an equal volume of saline was used in the control group. Mice were anaesthetised every two days using isoflurane nebulisation followed by anaesthesia (concentration 2 %), after which they were placed under an optical camera to photograph the effect of wound area. After 13 days of treatment, mice were anaesthetised using isoflurane nebulisation followed by injection of an overdose of sodium pentobarbital to euthanise the mice (200 mg/kg). The wounds and their surrounding tissues were then excised for histopathological evaluation (Masson and H&E staining) and analysed by Enface immunofluorescence staining.

p-ERK/ERK = assay: Western blot p-ERK/ERK in HaCaT; type: cell-based, Human; conditions: SC17-2 20 μg/mL, 24 h (16 h elsewhere in the source), n = 3
Experimental: (§1) HaCaT was inoculated in 12-well plates (2 × 10^5 cells/well) and cultured for 24 h. Afterwards, HaCaT cells were treated with equal amounts of VEGF, SC17-2, and PBS for 16 h. Cells were washed with PBS, after which the samples were collected and added to 1 mL of RIPA lysate containing protease inhibitors and phosphatase inhibitors and placed on ice for 30 min. Allowed to be after sufficient lysis, the supernatant was centrifuged and collected to determine the protein concentration using a nanodrop, followed by the addition of SDS sampling buffer and heating at 95 °C for 10 min. Samples were loaded and run on a gel block based on the determined sample concentration, and then electrotransferred onto a 0.45 μm PVDF membrane. […] After washing three times with TBST, proteins were visualised and scanned by enhanced chemiluminescence using the ChemiDoc XRS imaging system (Bio-Rad, Hercules, CA, USA).

TGF-β = assay: Western blot TGF-β in HaCaT; type: cell-based, Human; conditions: SC17-2 20 μg/mL, 24 h (16 h elsewhere in the source), n = 3
Experimental: as §1

TGF-α mRNA = assay: qPCR TGF-α mRNA in HaCaT; type: cell-based, Human; conditions: SC17-2 20 μg/mL, n = 6
Experimental: (§2) HaCaT cells were treated as above, washed twice with PBS and lysed using Trizol for 5 min, after which 200 μL of chloroform was added and shaken vigorously for 30 s. The cells were centrifuged for 15 min to separate the upper and lower layers (12,500 g, 4 °C). The supernatant was vortexed with an equal amount of isopropanol and left to stand for 10 min, and then centrifuged again under the same conditions to retain only the white precipitate. 500 μL of 75 % ethanol was added and centrifuged (12000 rpm, 4 °C, 10 min) and the operation was repeated twice. Afterwards, DEPC was used for dissolution and the concentration was determined by nanodrop. One-step reverse transcription to DNA was performed using 5 × MIX, after which primers and 2 × MIX were added and placed. qPCR was performed (LightCycler96, F. Hoffmann-La Roche, Swiss).

TGF-β1 mRNA = assay: qPCR TGF-β1 mRNA in HaCaT; type: cell-based, Human; conditions: SC17-2, HaCaT
Experimental: as §2

EGFR = EGFR (Homo sapiens, UniProt P00533); assay: Surface plasmon resonance (SPR); type: binding
Experimental: The analysis of biomolecular interactions was conducted utilising a Biacore S200 biosensor system (S200, Biacore, China). Briefly, the EGFR (20 μg/mL) was immobilised by amine coupling on the surface of a CM5 sensor chip (29104988, Cytiva, China) with a resonance unit (RU) of approximately 2000, using a sodium acetate buffer (10 mM, pH 4) as the immobilisation solution. In order to assess the affinity of SC17-2 for the epidermal EGFR, SC17-2 was injected at a flow rate of 30 μL/min onto a chip containing immobilised EGFR. The injection of SC17-2 was carried out at a flow rate of 30 μL/min at concentrations ranging from 5 to 500 μg/mL. The RU were recorded. The binding dissociation constants (KD) were determined using BiacoreTM Insight software.

[1] = Circular dichroism spectroscopy; type: physicochemical
[2] = Antioxidant activity (stated, no separate method); conditions: no separate method or value printed

Question: With “SFMPLSIPIMCKMLSKC [SC17-2, peptide of the pleskein family from the skin transcriptome of the frog Nanorana parkeri, made by solid-phase synthesis]” as the sequence, how does the HSF migration (HSF cells) read?
Answer: notable enhancement

Question: What about the HUVEC migration (HUVEC cells) of the same sequence?
Answer: notable enhancement

Question: What about the “UVB damage repair compared with non-irradiated group” value (HaCaT cells; SC17-2 20 μg/mL vs group not irradiated) of the same sequence?
Answer: considerably less pronounced

Question: And the “attenuation of UVB-induced damage” value (HaCaT cells; SC17-2 20 μg/mL, 24 h after 5 J/cm UVB, CCK-8, vs saline after irradiation)?
Answer: capable of effectively removing the damage caused by UVB radiation

Question: What about the “attenuation of cell injuries after UVB irradiation” value (HaCaT cells; SC17-2 20 and 5 μg/mL, 24 h, CCK-8, n = 3) of the same sequence?
Answer: could attenuate the cell injuries

Question: What about the “reduction of wound area vs control, significance” value (BALB/c mice; SC17-2 20 μg/mL, at times other than day 9) of the same sequence?
Answer: significantly promote the reduction of wound area

Question: And the “reduction of wound area vs control on day 9” value (BALB/c mice; SC17-2 20 μg/mL, day 9)?
Answer: non-significant difference

Question: And the “final reduction in wound area, dose dependence” value (BALB/c mice; after 13 days of treatment)?
Answer: metrologically dependent on SC17-2

Question: What about the wound area (BALB/c mice; day 3, SC17-2 20 μg/mL) of the same sequence?
Answer: 77.84 ± 3.34%

Question: And the wound area (BALB/c mice; day 5, SC17-2 20 μg/mL)?
Answer: 54.43 ± 2.53%

Question: What about the “wound area compared with VEGF” value (BALB/c mice; day 13, SC17-2 20 μg/mL vs VEGF) of the same sequence?
Answer: significantly smaller

Question: And the wound area (BALB/c mice; day 13, SC17-2 20 μg/mL)?
Answer: 2.65 ± 0.72%

Question: And the “wound area reduction, ratio to saline-treated control” value (BALB/c mice; days 3 and 5, SC17-2 20 μg/mL)?
Answer: ~1.3 fold

Question: What about the ERK phosphorylation (p-ERK/ERK) of the same sequence?
Answer: significantly increased ERK phosphorylation

Question: What about the “expression of TGF-β” value (TGF-β) of the same sequence?
Answer: significantly increase the expression of TGF-β

Question: And the “mRNA expression of TGF-α” value (TGF-α mRNA)?
Answer: significantly elevated

Question: What about the “TGF-β1 expression (qPCR)” value (TGF-β1 mRNA) of the same sequence?
Answer: simultaneous increase

Question: What about the “EGFR binding, dose dependence” value (EGFR) of the same sequence?
Answer: binds in a dose-dependent manner

Question: And the secondary structure composition ([1]; 0 mM (H2O) and 60 mM SDS)?
Answer: primarily of random coil and β-sheet structures, with only trace amounts of γ-turn and α-helix structures

Question: What about the “secondary structure, change with SDS” value ([1]; 0 mM (H2O) vs 60 mM SDS) of the same sequence?
Answer: remained largely unchanged

Question: And the antioxidant activity [2]?
Answer: demonstrated antioxidant activity
